Test results as given in patent US4839386A, “Ionic bis (Dicarboxylato) palladate (II)” (Engelhard Corporation, priority 1987, dated 1989).
Values joined by “and” are separate entries in the source; they are usually repeats but may differ in a detail not shown here. Identical values can stand only once.

System: S180 ascites
Assay: Anti-Tumor Screening; S180 ascites in mice (% increase in life span, survivors)
Assay type: in vivo, female CFW Swiss mice
Settings: 5 mg/kg
Description: The compounds used in this invention were evaluated against S180 ascites in female CFW Swiss mice. The mice were weighed (average weight: 20 g), placed into cages (six mice to a cage) and on day zero the mice were inoculated with 0.2 ml of a freshly prepared saline suspension (0.15M NaC1) containing 1×10^7 tumor cells/ml or a total of 2×10^6 cells. This inoculum was freshly prepared using "transfer" mice which had been injected with tumor cells the previous week; it was obtained via the following steps (1) the removal of cells from the peritoneal cavity of the sacrificed transfer mouse, (2) alternate centrifugation and washing operations (2-3 times with cold saline) to remove blood and other components, and (3) dilution of the volume of the packed cell with saline (1:3). A final centrifugation was carried out at 1000 RPM over a two minute period. A cell count was made on a 2000-fold dilution of this 1:3 suspension by means of a Coulter Counter. A final dilution to 1×10^7 cells/ml was made based on the average count.
On day 1, solutions of the test compounds were prepared and each mouse in a set of six was injected with the same test compound at the same dosage. The doses were based on the average weight of the animals (cage weight). Also, beginning on day 1 two controls were employed containing six mice per control:
(1) Normal Control: This consisted solely of the carrier or diluent used in combination with the test compound; and
(2) Positive Control: This consisted solely of the known anti-tumor agent cis-[Pt(NH3)2 C12 ] in saline (8 mg/kg) to test the response of the biological system.
The effectiveness of a test compound was measured in terms of the % increase in life span (% ILS) of the test mice relative to the Normal Control (Calculated from the day of tumor inoculation, i.e., day zero). To standardize the test data and permit intercomparisons, the day of evaluation was arbitrarily taken as that day corresponding to twice the mean life span (or average day of death) of the control. This established a practical upper limit of 100% on the % ILS attainable. For calculation purposes the survivors on the day of evaluation were considered to have died on that day. The % ILS was calculated as follows:
% ILS=mean-life span of test mice/mean-life span of control
ILS values in excess of 50% were interpreted as being indicative of anti-tumor cell activity in animals whereas, values in excess of 75% indicated excellent activity.
The test compounds were evaluated in water.

Row | Compound | % ILS | Survivors
1 | CCC(C(=O)[O-])C(=O)[O-].CCC(C(=O)[O-])C(=O)[O-].[K+].[K+].[Pd+2] [Example 1, Potassium Bis(Ethylmalonato)palladate(II)] | 6% | 0 of 6

Same assay, conditions: 6.25 mg/kg

Row | Compound | % ILS | Survivors
2 | CC(C(=O)[O-])C(=O)[O-].CC(C(=O)[O-])C(=O)[O-].[K+].[K+].[Pd+2] [Example 3, Potassium Bis(Methylmalonato)palladate(II)] | 11% | 0 of 6

Same assay, conditions: 8 mg/kg in saline

Row | Compound | Positive Control Survivors
3 | cis-[Pt(NH3)2 -Cl2 ] [Positive Control, reference compound] | 0 of 6 and 1 of 6 and 2 of 6 and 4 of 6

Same assay, conditions: 10 mg/kg

Row | Compound | % ILS | Survivors
4 | O=C([O-])C(=O)C(=O)[O-].O=C([O-])C(=O)C(=O)[O-].[K+].[K+].[Pd+2] [Example 2, Potassium Bis(Ketomalonato)palladate(II)] | 4% | 0 of 6
5 | O=C([O-])CC(=O)[O-].O=C([O-])CC(=O)[O-].[K+].[K+].[Pd+2] [K2 [Pd(Malonate)2]] | 6% and 8% | 0 of 6
6 | CCC(C(=O)[O-])C(=O)[O-].CCC(C(=O)[O-])C(=O)[O-].[K+].[K+].[Pd+2] [Example 1, Potassium Bis(Ethylmalonato)palladate(II)] | -3% | 0 of 6

Same assay, conditions: 12.5 mg/kg

Row | Compound | % ILS | Survivors
7 | CC(C(=O)[O-])C(=O)[O-].CC(C(=O)[O-])C(=O)[O-].[K+].[K+].[Pd+2] [Example 3, Potassium Bis(Methylmalonato)palladate(II)] | 2% | 0 of 6

Same assay, conditions: 20 mg/kg

Row | Compound | % ILS | Survivors
8 | O=C([O-])C(=O)C(=O)[O-].O=C([O-])C(=O)C(=O)[O-].[K+].[K+].[Pd+2] [Example 2, Potassium Bis(Ketomalonato)palladate(II)] | 4% | 0 of 6
9 | O=C([O-])CC(=O)[O-].O=C([O-])CC(=O)[O-].[K+].[K+].[Pd+2] [K2 [Pd(Malonate)2]] | -1% and 8% | 0 of 6
10 | CCC(C(=O)[O-])C(=O)[O-].CCC(C(=O)[O-])C(=O)[O-].[K+].[K+].[Pd+2] [Example 1, Potassium Bis(Ethylmalonato)palladate(II)] |  | 0 of 6

Same assay, conditions: 25 mg/kg

Row | Compound | % ILS | Survivors
11 | CC(C(=O)[O-])C(=O)[O-].CC(C(=O)[O-])C(=O)[O-].[K+].[K+].[Pd+2] [Example 3, Potassium Bis(Methylmalonato)palladate(II)] | -6% | 0 of 6

Same assay, conditions: 40 mg/kg

Row | Compound | % ILS | Survivors
12 | O=C([O-])C(=O)C(=O)[O-].O=C([O-])C(=O)C(=O)[O-].[K+].[K+].[Pd+2] [Example 2, Potassium Bis(Ketomalonato)palladate(II)] | 4% | 0 of 6
13 | O=C([O-])CC(=O)[O-].O=C([O-])CC(=O)[O-].[K+].[K+].[Pd+2] [K2 [Pd(Malonate)2]] | -12% | 0 of 6
14 | CCC(C(=O)[O-])C(=O)[O-].CCC(C(=O)[O-])C(=O)[O-].[K+].[K+].[Pd+2] [Example 1, Potassium Bis(Ethylmalonato)palladate(II)] |  | 0 of 6

Same assay, conditions: 50 mg/kg

Row | Compound | % ILS | Survivors
15 | CC(C(=O)[O-])C(=O)[O-].CC(C(=O)[O-])C(=O)[O-].[K+].[K+].[Pd+2] [Example 3, Potassium Bis(Methylmalonato)palladate(II)] | 2% | 0 of 6

Same assay, conditions: 80 mg/kg

Row | Compound | % ILS | Survivors
16 | O=C([O-])C(=O)C(=O)[O-].O=C([O-])C(=O)C(=O)[O-].[K+].[K+].[Pd+2] [Example 2, Potassium Bis(Ketomalonato)palladate(II)] | 13% | 1 of 6
17 | O=C([O-])CC(=O)[O-].O=C([O-])CC(=O)[O-].[K+].[K+].[Pd+2] [K2 [Pd(Malonate)2]] | 69% and 66% | 3 of 6 and 2 of 6
18 | CCC(C(=O)[O-])C(=O)[O-].CCC(C(=O)[O-])C(=O)[O-].[K+].[K+].[Pd+2] [Example 1, Potassium Bis(Ethylmalonato)palladate(II)] |  | 0 of 6

Same assay, conditions: 100 mg/kg

Row | Compound | % ILS | Survivors
19 | CC(C(=O)[O-])C(=O)[O-].CC(C(=O)[O-])C(=O)[O-].[K+].[K+].[Pd+2] [Example 3, Potassium Bis(Methylmalonato)palladate(II)] | 54% | 2 of 6

Same assay, conditions: 100 mg/kg; Table 4

Row | Compound | Best % ILS (Dosage)
20 | CC(C(=O)[O-])C(=O)[O-].CC(C(=O)[O-])C(=O)[O-].[K+].[K+].[Pd+2] [Example 3, Potassium Bis(Methylmalonato)palladate(II)] | 54%

Same assay, conditions: 160 mg/kg

Row | Compound | % ILS | Survivors
21 | O=C([O-])C(=O)C(=O)[O-].O=C([O-])C(=O)C(=O)[O-].[K+].[K+].[Pd+2] [Example 2, Potassium Bis(Ketomalonato)palladate(II)] | 81% | 5 of 6
22 | O=C([O-])CC(=O)[O-].O=C([O-])CC(=O)[O-].[K+].[K+].[Pd+2] [K2 [Pd(Malonate)2]] | 82% and 86% | 2 of 6 and 3 of 6

Same assay, conditions: 160 mg/kg; Table 4

Row | Compound | Best % ILS (Dosage)
23 | O=C([O-])C(=O)C(=O)[O-].O=C([O-])C(=O)C(=O)[O-].[K+].[K+].[Pd+2] [Example 2, Potassium Bis(Ketomalonato)palladate(II)] | 81%
24 | O=C([O-])CC(=O)[O-].O=C([O-])CC(=O)[O-].[K+].[K+].[Pd+2] [K2 [Pd(Malonate)2]] | 82% and 86%
25 | CCC(C(=O)[O-])C(=O)[O-].CCC(C(=O)[O-])C(=O)[O-].[K+].[K+].[Pd+2] [Example 1, Potassium Bis(Ethylmalonato)palladate(II)] | 94%

Same assay, conditions: 160 mg/kg; listed as Ex. 1

Row | Compound | % ILS | Survivors
26 | CCC(C(=O)[O-])C(=O)[O-].CCC(C(=O)[O-])C(=O)[O-].[K+].[K+].[Pd+2] [Example 1, Potassium Bis(Ethylmalonato)palladate(II)] | 94% and 55% | 5 of 6 and 1 of 6

Same assay, conditions: 200 mg/kg

Row | Compound | % ILS | Survivors
27 | CC(C(=O)[O-])C(=O)[O-].CC(C(=O)[O-])C(=O)[O-].[K+].[K+].[Pd+2] [Example 3, Potassium Bis(Methylmalonato)palladate(II)] | 54% | 0 of 6

Same assay, conditions: 320 mg/kg

Row | Compound | % ILS | Survivors
28 | O=C([O-])C(=O)C(=O)[O-].O=C([O-])C(=O)C(=O)[O-].[K+].[K+].[Pd+2] [Example 2, Potassium Bis(Ketomalonato)palladate(II)] | 17% | 0 of 6
29 | O=C([O-])CC(=O)[O-].O=C([O-])CC(=O)[O-].[K+].[K+].[Pd+2] [K2 [Pd(Malonate)2]] | -74% | 0 of 6

Same assay, conditions: 320 mg/kg; listed as Ex. 1

Row | Compound | Survivors
30 | CCC(C(=O)[O-])C(=O)[O-].CCC(C(=O)[O-])C(=O)[O-].[K+].[K+].[Pd+2] [Example 1, Potassium Bis(Ethylmalonato)palladate(II)] | 0 of 6 and 1 of 6

Same assay, conditions: 400 mg/kg

Row | Compound | % ILS | Survivors
31 | CC(C(=O)[O-])C(=O)[O-].CC(C(=O)[O-])C(=O)[O-].[K+].[K+].[Pd+2] [Example 3, Potassium Bis(Methylmalonato)palladate(II)] | -83% | 0 of 6

System: S 180 Ascites
Assay: effective dose (ED90) and therapeutic index, S 180 ascites, method of Miller and Taiter
Assay type: in vivo, mice
Set-up: ED90: unit not given here
Settings: LD50/ED90
Description: The effective dose (ED90), lethal dose (LD50) and therapeutic index (TI) were determined via the method of Miller and Taiter (Reported by R. A. Turner, "Screening Methods in Pharmacology", Academic Press, New York, pages 61-62 (1965)).
In this study Ed90 represents the dose which causes a 50% increase in life span (ILS) in 90% of the test animals (mice) determined graphically. The LD50 value represents the lethal dose to 50% of said animals (Therapeutic Index=LD50 /Ed90).

Row | Compound | Therapeutic Index
32 | CC(C(=O)[O-])C(=O)[O-].CC(C(=O)[O-])C(=O)[O-].[K+].[K+].[Pd+2] [Example 3, Potassium Bis(Methylmalonato)palladate(II)] | 1.1
33 | O=C([O-])C(=O)C(=O)[O-].O=C([O-])C(=O)C(=O)[O-].[K+].[K+].[Pd+2] [Example 2, Potassium Bis(Ketomalonato)palladate(II)] | 2.0
34 | CCC(C(=O)[O-])C(=O)[O-].CCC(C(=O)[O-])C(=O)[O-].[K+].[K+].[Pd+2] [Example 1, Potassium Bis(Ethylmalonato)palladate(II)] | 2.1

Same assay, conditions: dose which causes a 50% increase in life span in 90% of the test animals, determined graphically

Row | Compound | ED90
35 | CC(C(=O)[O-])C(=O)[O-].CC(C(=O)[O-])C(=O)[O-].[K+].[K+].[Pd+2] [Example 3, Potassium Bis(Methylmalonato)palladate(II)] | 160
36 | O=C([O-])C(=O)C(=O)[O-].O=C([O-])C(=O)C(=O)[O-].[K+].[K+].[Pd+2] [Example 2, Potassium Bis(Ketomalonato)palladate(II)] | 200
37 | O=C([O-])CC(=O)[O-].O=C([O-])CC(=O)[O-].[K+].[K+].[Pd+2] [K2 [Pd(Malonate)2]] | 120
38 | CCC(C(=O)[O-])C(=O)[O-].CCC(C(=O)[O-])C(=O)[O-].[K+].[K+].[Pd+2] [Example 1, Potassium Bis(Ethylmalonato)palladate(II)] | 150

System: not given
Assay: not given
Settings: not given

Row | Compound | solubility in water
39 | O=C([O-])C(=O)C(=O)[O-].O=C([O-])C(=O)C(=O)[O-].[K+].[K+].[Pd+2] [Example 2, Potassium Bis(Ketomalonato)palladate(II)] | 6.7 mg/mL

System: testicular and ovarian tumors
Assay: not given
Settings: background; cited from earlier work

Row | Compound | regression of testicular and ovarian tumors (in words)
40 | cis-[Pt(NH3)2 -Cl2 ] [Positive Control, reference compound] | singularly successful in bringing about a regression of testicular and ovarian tumors

System: not listed separately
Assay: solubility in water at room temperature
Settings: not given

Row | Compound | solubility in water
41 | CC(C(=O)[O-])C(=O)[O-].CC(C(=O)[O-])C(=O)[O-].[K+].[K+].[Pd+2] [Example 3, Potassium Bis(Methylmalonato)palladate(II)] | 21 mg/mL
42 | CCC(C(=O)[O-])C(=O)[O-].CCC(C(=O)[O-])C(=O)[O-].[K+].[K+].[Pd+2] [Example 1, Potassium Bis(Ethylmalonato)palladate(II)] | 70 mg/mL
